Literature values, collected in paper PMC7791840, “The R-enantiomer of ketorolac reduces ovarian cancer tumor burden in vivo” (BMC Cancer, 2021).

Tests used:
[1] = test system: Rac1; set-up: method as in earlier work; conditions: cell-based assays, ovarian tumor cells; ref 23 (R-ketorolac), 27 (S-ketorolac); cited from earlier work
[2] = test system: Cdc42; set-up: method as in earlier work; conditions: cell-based assays, ovarian tumor cells; ref 23 (R-ketorolac), 27 (S-ketorolac); cited from earlier work
[3] = set-up: method as in PMID 8809637; conditions: mice; cited from earlier work
[4] = test system: COX-2; set-up: method as in PMID 26558612, PMID 10027870; conditions: cited from earlier work
[5] = test system: COX-1; set-up: method as in PMID 26558612, PMID 10027870; conditions: cited from earlier work
[6] = test system: HEY8 ovarian cancer xenografts; set-up: method as in PMID 25595279; conditions: cited from earlier work

| Compound | IC50 [1] | IC50 [2] | Conversion of S-enantiomer to R-enantiomer [3] | IC50 [4] | IC50 [5] | Number of tumor nodules [6] | Tumor weight [6] |
| --- | --- | --- | --- | --- | --- | --- | --- |
| O=C(c1ccccc1)c1ccc2n1CC[C@@H]2C(=O)O [S-ketorolac] | > 100 µM | > 100 µM | significantly converted to the R-enantiomer in mice | 1.46 µM | 0.46 µM |  |  |
| O=P(O)(O)C(O)(Cn1ccnc1)P(=O)(O)O [zoledronic acid, Zoledronic acid] |  |  |  |  |  | decreased | decreased |
